What was measured:
DENV-2 16681 strain = experiment: DENV-2 antiviral assay (eGFP-labeled virus in Vero cells); format: cell-based, Dengue virus; settings: DENV-2 16681 eGFP, MOI 0.5, 3 days
Method: The antiviral activity of all the compounds of the invention was tested against the DENV-2 16681 strain which was labeled with enhanced green fluorescent protein (eGPF). The culture medium consists of minimal essential medium supplemented with 2% of heat-inactivated fetal calf serum, 0.04% gentamycin (50 mg/mL) and 2 mM of L-glutamine. Vero cells, obtained from ECACC, were suspended in culture medium and 25 μL was added to 384-well plates (2500 cells/well), which already contain the antiviral compounds. Typically, these plates contain a 5-fold serial dilution of 9 dilution steps of the test compound at 200 times the final concentration in 100% DMSO (200 nL). […] Finally, each plate contains wells which are assigned as virus controls (containing cells and virus in the absence of compound), cell controls (containing cells in the absence of virus and compound) and medium controls (containing medium in the absence of cells, virus and compounds). To the wells assigned as medium control, 25 μL of culture medium was added instead of Vero cells. Once the cells were added to the plates, the plates were incubated for 30 minutes at room temperature to allow the cells to distribute evenly within the wells. Next, the plates were incubated in a fully humidified incubator (37° C., 5% CO2) until the next day. Then, DENV-2 strain 16681, labeled with eGFP, was added at a multiplicity of infection (MOI) of 0.5. Therefore, 15 μL of virus suspension was added to all the wells containing test compound and to the wells assigned as virus control. In parallel, 15 μL of culture medium was added to the medium and cell controls. Next, the plates were incubated for 3 days in a fully humidified incubator (37° C., 5% CO2). At the day of the read out, the eGFP fluorescence was measured using an automated fluorescence microscope at 488 nm (blue laser). Using an in-house LIMS system, inhibition dose response curves for each compound were calculated and the half maximal effective concentration (EC50) was determined. Therefore, the percent inhibition (I) for every test concentration is calculated using the following formula: I=100*([…])/(SVC−SCC); ST, SCC and SVC are the amount of eGFP signal in the test compound, cell control and virus control wells, respectively. The EC50 represents the concentration of a compound at which the virus replication is inhibited with 50%, as measured by a 50% reduction of the eGFP fluorescent intensity compared to the virus control. The EC50 is calculated using linear interpolation (Table 1).

[1] = Toxicity on the same plates (ATPlite cell viability); settings: African green monkey, CC50, Vero cells, same plates as DENV-2 antiviral assay
Vero cells = experiment: as above; settings: Vero cells, same plates as DENV-2 antiviral assay
[2] = Dengue virus, DENV2, Vero, 72 h

Compound | EC50 (DENV-2 16681 strain; [2]) [µM] | CC50 [1] [µM] | EC50 (DENV-2 16681 strain) [µM] | CC50 (Vero cells) [µM]
COc1cc(NC(C(=O)c2c[nH]c3cc(F)c(C(F)(F)F)cc23)c2ccc(F)cc2OC)cc(OCCO)c1 (racemic) [Compound 3, 2-(4-fluoro-2-methoxyphenyl)-1-(6-fluoro-5-(trifluoromethyl)-1H-indol-3-yl)-2-((3-(2-hydroxyethoxy)-5-methoxyphenyl)amino)ethanone] | 0.00099 | 3 |  | 
COc1cc(NC(C(=O)c2c[nH]c3c(C)cc(C(F)(F)F)cc23)c2ccc(F)cc2OC)cc(OCCO)c1 (racemic) [Compound 4, 2-(4-fluoro-2-methoxyphenyl)-2-((3-(2-hydroxyethoxy)-5-methoxyphenyl)amino)-1-(7-methyl-5-(trifluoromethyl)-1H-indol-3-yl)ethanone] | 0.00062 | 6.1 |  | 
COc1cc(NC(C(=O)c2c[nH]c3ccc(OC(F)(F)F)cc23)c2ccc(F)cc2OC)cc(OCCO)c1 (racemic) [Compound 5, 2-(4-fluoro-2-methoxyphenyl)-2-((3-(2-hydroxyethoxy)-5-methoxyphenyl)amino)-1-(5-(trifluoromethoxy)-1H-indol-3-yl)ethanone] | 0.0005 | 4.5 |  | 
COc1cc(NC(C(=O)c2c[nH]c3c(C)cc(OC(F)(F)F)cc23)c2ccc(F)cc2OC)cc(OCCO)c1 (racemic) [Compound 8, 2-(4-fluoro-2-methoxyphenyl)-2-((3-(2-hydroxyethoxy)-5-methoxyphenyl)amino)-1-(7-methyl-5-(trifluoromethoxy)-1H-indol-3-yl)ethanone] | 0.00041 | 4.7 |  | 
COc1cc(NC(C(=O)c2c[nH]c3ccc(C(F)(F)F)cc23)c2ccc(Cl)cc2OC)cc(OCCO)c1 (racemic) [Compound 9, 2-(4-chloro-2-methoxyphenyl)-2-((3-(2-hydroxyethoxy)-5-methoxyphenyl)amino)-1-(5-(trifluoromethyl)-1H-indol-3-yl)ethanone] | 0.00029 | 2.5 |  | 
COc1cc(NC(C(=O)c2c[nH]c3cc(OC)c(C(F)(F)F)cc23)c2ccc(Cl)cc2OC)cc(OCCO)c1 (racemic) [Compound 10, 2-(4-chloro-2-methoxyphenyl)-2-((3-(2-hydroxyethoxy)-5-methoxyphenyl)amino)-1-(6-methoxy-5-(trifluoromethyl)-1H-indol-3-yl)ethanone] | 0.00027 | 3.2 |  | 
COc1cc(NC(C(=O)c2c[nH]c3cc(OC)c(OC(F)(F)F)cc23)c2ccc(Cl)cc2OC)cc(OCCO)c1 (racemic) [Compound 14, 2-(4-chloro-2-methoxyphenyl)-2-((3-(2-hydroxyethoxy)-5-methoxyphenyl)amino)-1-(6-methoxy-5-(trifluoromethoxy)-1H-indol-3-yl)ethanone] | 0.00034 | 3.5 |  | 
COc1cc(NC(C(=O)c2c[nH]c3ccc(C(F)(F)F)cc23)c2ccc(F)cc2OC)cc(OCCO)c1 (single isomer, unassigned) [Compound 1A, 2-(4-fluoro-2-methoxyphenyl)-2-((3-(2-hydroxyethoxy)-5-methoxyphenyl)amino)-1-(5-(trifluoromethyl)-1H-indol-3-yl)ethanone] |  |  | 0.064 | 6.8
COc1cc(NC(C(=O)c2c[nH]c3cc(OC)c(C(F)(F)F)cc23)c2ccc(F)cc2OC)cc(OCCO)c1 (single isomer, unassigned) [Compound 2B, 2-(4-fluoro-2-methoxyphenyl)-2-((3-(2-hydroxyethoxy)-5-methoxyphenyl)amino)-1-(6-methoxy-5-(trifluoromethyl)-1H-indol-3-yl)ethanone] |  |  | 0.024 | 6.8
COc1cc(NC(C(=O)c2c[nH]c3cc(F)c(C(F)(F)F)cc23)c2ccc(F)cc2OC)cc(OCCO)c1 (single isomer, unassigned) [Compound 3B, 2-(4-fluoro-2-methoxyphenyl)-1-(6-fluoro-5-(trifluoromethyl)-1H-indol-3-yl)-2-((3-(2-hydroxyethoxy)-5-methoxyphenyl)amino)ethanone] |  |  | 0.015 | 7.8
COc1cc(NC(C(=O)c2c[nH]c3c(C)cc(C(F)(F)F)cc23)c2ccc(F)cc2OC)cc(OCCO)c1 (single isomer, unassigned) [Compound 4A, 2-(4-fluoro-2-methoxyphenyl)-2-((3-(2-hydroxyethoxy)-5-methoxyphenyl)amino)-1-(7-methyl-5-(trifluoromethyl)-1H-indol-3-yl)ethanone] |  |  | 0.063 | 11
COc1cc(NC(C(=O)c2c[nH]c3ccc(OC(F)(F)F)cc23)c2ccc(F)cc2OC)cc(OCCO)c1 (single isomer, unassigned) [Compound 5A, 2-(4-fluoro-2-methoxyphenyl)-2-((3-(2-hydroxyethoxy)-5-methoxyphenyl)amino)-1-(5-(trifluoromethoxy)-1H-indol-3-yl)ethanone] |  | 5.4 | 0.03 | 
COc1cc(NC(C(=O)c2c[nH]c3cc(OC)c(OC(F)(F)F)cc23)c2ccc(F)cc2OC)cc(OCCO)c1 (single isomer, unassigned) [Compound 6B, 2-(4-fluoro-2-methoxyphenyl)-2-((3-(2-hydroxyethoxy)-5-methoxyphenyl)amino)-1-(6-methoxy-5-(trifluoromethoxy)-1H-indol-3-yl)ethanone] |  |  | 0.098 | 10
COc1cc(NC(C(=O)c2c[nH]c3cc(F)c(OC(F)(F)F)cc23)c2ccc(F)cc2OC)cc(OCCO)c1 (single isomer, unassigned) [Compound 7A, 2-(4-fluoro-2-methoxyphenyl)-1-(6-fluoro-5-(trifluoromethoxy)-1H-indol-3-yl)-2-((3-(2-hydroxyethoxy)-5-methoxyphenyl)amino)ethanone] |  |  | 0.025 | 6.7
COc1cc(NC(C(=O)c2c[nH]c3c(C)cc(OC(F)(F)F)cc23)c2ccc(F)cc2OC)cc(OCCO)c1 (single isomer, unassigned) [Compound 8B, 2-(4-fluoro-2-methoxyphenyl)-2-((3-(2-hydroxyethoxy)-5-methoxyphenyl)amino)-1-(7-methyl-5-(trifluoromethoxy)-1H-indol-3-yl)ethanone] |  |  | 0.031 | 6
COc1cc(NC(C(=O)c2c[nH]c3cc(F)c(C(F)(F)F)cc23)c2ccc(Cl)cc2OC)cc(OCCO)c1 (single isomer, unassigned) [Compound 11B, 2-(4-chloro-2-methoxyphenyl)-1-(6-fluoro-5-(trifluoromethyl)-1H-indol-3-yl)-2-((3-(2-hydroxyethoxy)-5-methoxyphenyl)amino)ethanone] |  |  | 0.015 | 2.7
COc1cc(NC(C(=O)c2c[nH]c3c(C)cc(C(F)(F)F)cc23)c2ccc(Cl)cc2OC)cc(OCCO)c1 (single isomer, unassigned) [Compound 12B, 2-(4-chloro-2-methoxyphenyl)-2-((3-(2-hydroxyethoxy)-5-methoxyphenyl)amino)-1-(7-methyl-5-(trifluoromethyl)-1H-indol-3-yl)ethanone] |  |  | 0.038 | 11
COc1cc(NC(C(=O)c2c[nH]c3ccc(OC(F)(F)F)cc23)c2ccc(Cl)cc2OC)cc(OCCO)c1 (single isomer, unassigned) [Compound 13B, 2-(4-chloro-2-methoxyphenyl)-2-((3-(2-hydroxyethoxy)-5-methoxyphenyl)amino)-1-(5-(trifluoromethoxy)-1H-indol-3-yl)ethanone] |  |  | 0.0072 | 5.8
COc1cc(NC(C(=O)c2c[nH]c3cc(OC)c(OC(F)(F)F)cc23)c2ccc(Cl)cc2OC)cc(OCCO)c1 (single isomer, unassigned) [Compound 14B, 2-(4-chloro-2-methoxyphenyl)-2-((3-(2-hydroxyethoxy)-5-methoxyphenyl)amino)-1-(6-methoxy-5-(trifluoromethoxy)-1H-indol-3-yl)ethanone] |  |  | 0.0072 | 5.4
COc1cc(NC(C(=O)c2c[nH]c3c(C)cc(OC(F)(F)F)cc23)c2ccc(Cl)cc2OC)cc(OCCO)c1 (single isomer, unassigned) [Compound 16B, 2-(4-chloro-2-methoxyphenyl)-2-((3-(2-hydroxyethoxy)-5-methoxyphenyl)amino)-1-(7-methyl-5-(trifluoromethoxy)-1H-indol-3-yl)ethanone] |  |  | 0.015 | 3.6
